Test results reported in patent US10196390B2, “TYK2 inhibitors and uses thereof” (Nimbus Lakshmi, Inc., priority 2014, dated 2019).
pKi: −log10 of the molar value.

Key:
[1] = target: TYK2 (Homo sapiens (Human), UniProt P29597); test: Tyk2 activity inhibition assay (radioactive kinase assay / Caliper assay); type: biochemical
Procedure, shortened: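 Two formats were used. Caliper off-chip mobility shift read phosphorylated peptide 30 (3 uM) after 25 min at 28° C with 9.75 nM TYK2 and ATP at 16 uM or 1 mM. Radioactive assay: 10 μM 33P-ATP, 20 μM peptide, 120 min room temp, P81 filter counting.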

[2] = target: JAK2 (Homo sapiens (Human), UniProt O60674); test: JAK2 activity inhibition assay (radioactive kinase assay / Caliper assay); type: biochemical; settings: read-out: JAK2 Ki
JAK2, sequence (O60674 whole entry): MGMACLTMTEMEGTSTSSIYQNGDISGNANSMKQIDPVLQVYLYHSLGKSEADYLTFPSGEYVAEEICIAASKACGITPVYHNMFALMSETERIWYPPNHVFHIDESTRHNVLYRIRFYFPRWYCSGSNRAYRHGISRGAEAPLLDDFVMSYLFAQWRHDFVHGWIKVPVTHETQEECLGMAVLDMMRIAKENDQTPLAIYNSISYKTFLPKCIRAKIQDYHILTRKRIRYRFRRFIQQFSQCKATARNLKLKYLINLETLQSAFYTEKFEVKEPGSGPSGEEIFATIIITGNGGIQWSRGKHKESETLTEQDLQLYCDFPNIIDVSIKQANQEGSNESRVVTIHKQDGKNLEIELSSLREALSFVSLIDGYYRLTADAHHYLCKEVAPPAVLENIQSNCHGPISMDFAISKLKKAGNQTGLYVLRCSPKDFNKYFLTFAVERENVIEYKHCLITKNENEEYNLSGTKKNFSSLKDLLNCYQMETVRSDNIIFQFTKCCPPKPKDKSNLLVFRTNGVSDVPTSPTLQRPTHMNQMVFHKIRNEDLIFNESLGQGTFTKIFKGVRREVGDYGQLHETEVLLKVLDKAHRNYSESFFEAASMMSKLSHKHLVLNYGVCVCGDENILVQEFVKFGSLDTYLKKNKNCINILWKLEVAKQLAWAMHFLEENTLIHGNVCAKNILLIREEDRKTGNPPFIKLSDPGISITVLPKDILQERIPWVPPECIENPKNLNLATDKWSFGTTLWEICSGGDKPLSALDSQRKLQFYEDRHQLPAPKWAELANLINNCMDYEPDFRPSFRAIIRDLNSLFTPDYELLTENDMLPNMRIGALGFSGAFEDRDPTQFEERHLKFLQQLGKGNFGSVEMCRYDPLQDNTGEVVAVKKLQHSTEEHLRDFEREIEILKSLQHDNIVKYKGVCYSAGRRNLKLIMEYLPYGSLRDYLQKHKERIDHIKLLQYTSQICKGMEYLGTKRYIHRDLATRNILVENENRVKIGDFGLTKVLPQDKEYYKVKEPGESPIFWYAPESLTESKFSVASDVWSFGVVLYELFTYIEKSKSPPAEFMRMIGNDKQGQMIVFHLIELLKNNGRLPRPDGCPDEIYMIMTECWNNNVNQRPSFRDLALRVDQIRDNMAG
Procedure, shortened: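 Reaction ran 25 min at 28° C after adding peptide/ATP mix (10 mM MgCl2) to compound and enzyme in HEPES pH 7.5 buffer with Brij-35, Triton and EGTA. EDTA stop, then microfluidic off-chip separation quantified phosphorylated peptide.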

TYK2, sequence (P29597 whole entry): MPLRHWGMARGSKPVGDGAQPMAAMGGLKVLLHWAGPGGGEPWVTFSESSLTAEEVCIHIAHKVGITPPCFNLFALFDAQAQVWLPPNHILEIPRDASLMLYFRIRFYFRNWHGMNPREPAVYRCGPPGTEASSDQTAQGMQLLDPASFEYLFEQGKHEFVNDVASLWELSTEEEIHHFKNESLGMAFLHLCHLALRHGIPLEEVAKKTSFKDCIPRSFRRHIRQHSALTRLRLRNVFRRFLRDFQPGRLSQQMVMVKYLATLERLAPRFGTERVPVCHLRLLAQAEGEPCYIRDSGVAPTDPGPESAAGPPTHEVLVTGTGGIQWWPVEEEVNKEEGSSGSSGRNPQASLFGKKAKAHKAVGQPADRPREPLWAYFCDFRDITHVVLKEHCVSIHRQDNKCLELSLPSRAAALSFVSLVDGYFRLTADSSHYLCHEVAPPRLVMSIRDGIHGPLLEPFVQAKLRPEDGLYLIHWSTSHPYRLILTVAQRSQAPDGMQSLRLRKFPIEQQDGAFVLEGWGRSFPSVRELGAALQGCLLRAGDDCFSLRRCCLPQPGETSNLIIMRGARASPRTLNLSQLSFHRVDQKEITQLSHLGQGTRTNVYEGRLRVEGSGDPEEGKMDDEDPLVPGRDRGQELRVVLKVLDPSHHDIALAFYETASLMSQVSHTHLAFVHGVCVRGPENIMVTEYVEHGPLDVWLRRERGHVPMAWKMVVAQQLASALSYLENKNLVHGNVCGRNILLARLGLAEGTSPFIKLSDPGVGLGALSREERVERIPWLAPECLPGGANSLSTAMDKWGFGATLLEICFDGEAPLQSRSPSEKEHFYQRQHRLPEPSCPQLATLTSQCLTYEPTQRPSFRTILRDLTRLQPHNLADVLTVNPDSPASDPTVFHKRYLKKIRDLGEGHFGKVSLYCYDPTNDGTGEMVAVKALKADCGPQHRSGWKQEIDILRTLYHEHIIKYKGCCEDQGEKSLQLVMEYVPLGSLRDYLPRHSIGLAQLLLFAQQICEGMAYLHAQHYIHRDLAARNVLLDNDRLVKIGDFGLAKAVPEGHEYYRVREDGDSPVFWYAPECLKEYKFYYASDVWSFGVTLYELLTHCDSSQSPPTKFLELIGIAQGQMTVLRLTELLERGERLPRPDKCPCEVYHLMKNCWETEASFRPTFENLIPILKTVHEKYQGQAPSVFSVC

SMILES | pKi [1] | pKi [2]
O=C(Cc1ccc(Nc2nc(-c3c(F)cccc3F)nc3c2C(=O)NC3)cc1)NCC1CCNCC1 [Compound I-13, 2-(4-((2-(2,6-difluorophenyl)-5-oxo-6,7-dihydro-5H-pyrrolo[3,4-d]pyrimidin-4-yl)amino)phenyl)-N-(piperidin-4-ylmethyl)acetamide] | > 8.00 | 6.00 to 7.00
COC(=O)Cc1ccc(Nc2nc(-c3c(F)cccc3F)nc3c2C(=O)NC3)cn1 [Compound I-18, methyl 2-(5-((2-(2,6-difluorophenyl)-5-oxo-6,7-dihydro-5H-pyrrolo[3,4-d]pyrimidin-4-yl)amino)pyridin-2-yl)acetate] | 6.00 to 7.00 | < 6.00
O=C1NCc2nc(-c3c(F)cccc3F)cc(Nc3ccc([C@@H]4CCNC4=O)cn3)c21 [Compound I-92, (S)-2-(2,6-difluorophenyl)-4-((5-(2-oxopyrrolidin-3-yl)pyridin-2-yl)amino)-6,7-dihydro-5H-pyrrolo[3,4-b]pyridin-5-one] | > 8.00 | 7.00 to 8.00
CCOC(=O)Cc1ccc(Nc2nc(-c3c(F)cccc3F)nc3c2C(=O)NC3)cc1 [Compound I-3, ethyl 2-(4-((2-(2,6-difluorophenyl)-5-oxo-6,7-dihydro-5H-pyrrolo[3,4-d]pyrimidin-4-yl)amino)phenyl)acetate] | > 8.00 | 6.00 to 7.00
CCNC(=O)Cc1ccc(Nc2nc(-c3c(F)cccc3F)nc3c2C(=O)NC3)cn1 [Compound I-23, 2-(5-((2-(2,6-difluorophenyl)-5-oxo-6,7-dihydro-5H-pyrrolo[3,4-d]pyrimidin-4-yl)amino)pyridin-2-yl)-N-ethylacetamide] | 7.00 to 8.00 | < 6.00
O=C(O)Cc1ccc(Nc2nc(-c3c(F)cccc3F)nc3c2C(=O)NC3)cn1 [Compound I-17] | 6.00 to 7.00 | < 6.00
C[C@H](CO)NC(=O)Cn1cc(Nc2nc(-c3c(F)cccc3F)nc3c2C(=O)NC3)cn1 [Compound I-70, (R)-2-(4-((2-(2,6-difluorophenyl)-5-oxo-6,7-dihydro-5H-pyrrolo[3,4-d]pyrimidin-4-yl)amino)-1H-pyrazol-1-yl)-N-(1-hydroxypropan-2-yl)acetamide] | 7.00 to 8.00 | < 6.00
O=C1NCc2nc(-c3c(F)cccc3F)nc(Nc3ccc(CC(=O)N4CCOCC4C(=O)O)cc3)c21 (stereo not shown) [Compound I-202, 4-(2-(4-((2-(2,6-difluorophenyl)-5-oxo-6,7-dihydro-5H-pyrrolo-[3,4-d]pyrimidin-4-yl)amino)phenyl)acetyl)morpholine-3-carboxylic Acid] | > 8.00 | 6.00 to 7.00
C[C@@]1(c2ccc(Nc3nc(-c4c(F)cccc4F)nc4c3C(=O)NC4)cc2)CCN(C2CCOCC2)C1=O [Compound I-125, (S)-2-(2,6-difluorophenyl)-4-((4-(3-methyl-2-oxo-1-(tetrahydro-2H-pyran-4-yl)pyrrolidin-3-yl)phenyl)amino)-6,7-dihydro-5H-pyrrolo[3,4-d]pyrimidin-5-one] | > 8.00 | 7.00 to 8.00
CC(C(=O)N1CCCCC1)c1ccc(Nc2nc(-c3c(F)cccc3F)nc3c2C(=O)NC3)cc1 (stereo not shown) [Compound I-198, 2-(2,6-difluorophenyl)-4-((4-(1-oxo-1-(piperidin-1-yl)propan-2-yl)phenyl)amino)-6,7-dihydro-5H-pyrrolo[3,4-d]pyrimidin-5-one] | > 8.00 | 6.00 to 7.00
O=C1NCc2nc(-c3c(F)cccc3F)nc(Nc3ccc([C@H]4CCN(C5CCC5)C4=O)cc3)c21 [Compound I-118, (R)-4-((4-(1-cyclobutyl-2-oxopyrrolidin-3-yl)phenyl)amino)-2-(2,6-difluorophenyl)-6,7-dihydro-5H-pyrrolo[3,4-d]pyrimidin-5-one] | > 8.00 | 6.00 to 7.00
O=C1NCc2nc(-c3c(F)cccc3F)nc(Nc3ccc([C@@H]4CCN(CCN5CCOCC5)C4=O)cc3)c21 [Compound I-123, (S)-2-(2,6-difluorophenyl)-4-((4-(1-(2-morpholinoethyl)-2-oxopyrrolidin-3-yl)phenyl)amino)-6,7-dihydro-5H-pyrrolo[3,4-d]pyrimidin-5-one] | > 8.00 | 6.00 to 7.00
CCNC(=O)[C@H]1C[C@H](Nc2nc(-c3c(F)cccc3F)nc3c2C(=O)NC3)C1 [Compound I-131, (1r,3r)-3-((2-(2,6-difluorophenyl)-5-oxo-6,7-dihydro-5H-pyrrolo[3,4-d]pyrimidin-4-yl)amino)-N-ethylcyclobutane-1-carboxamide] | < 6.00 | < 6.00
O=C(O)Cc1ccc(Nc2nc(-c3ccccc3Cl)nc3c2C(=O)NC3)cc1 [Compound I-7, 2-(4-((2-(2-chlorophenyl)-5-oxo-6,7-dihydro-5H-pyrrolo[3,4-d]pyrimidin-4-yl)amino)phenyl)acetic Acid] | 7.00 to 8.00 | < 6.00
O=C(O)Cc1ccc(Nc2nc(-c3c(F)cccc3C(F)(F)F)nc3c2C(=O)NC3)cc1 [Compound I-82, 2-(4-((2-(2-fluoro-6-(trifluoromethyl)phenyl)-5-oxo-6,7-dihydro-5H-pyrrolo[3,4-d]pyrimidin-4-yl)amino)phenyl)acetic Acid] | 7.00 to 8.00 | < 6.00
O=C(Cc1ccc(Nc2nc(-c3c(F)cccc3F)nc3c2C(=O)NC3)cc1)NCCO [Compound I-79, 2-(4-((2-(2,6-difluorophenyl)-5-oxo-6,7-dihydro-5H-pyrrolo[3,4-d]pyrimidin-4-yl)amino)phenyl)-N-(2-hydroxy-ethyl)acetamide] | > 8.00 | 6.00 to 7.00
O=C1NCc2nc(-c3c(F)cccc3F)nc(Nc3ccc([C@H]4CCN(CCN5CCOCC5)C4=O)cc3)c21 [Compound I-122, (R)-2-(2,6-difluorophenyl)-4-((4-(1-(2-morpholinoethyl)-2-oxopyrrolidin-3-yl)phenyl)amino)-6,7-dihydro-5H-pyrrolo[3,4-d]pyrimidin-5-one] | > 8.00 | 6.00 to 7.00
O=C1NCc2nc(-c3c(F)cccc3F)nc(N[C@H]3C[C@H](C(=O)O)C3)c21 [Compound I-130, (1r,3r)-3-((2-(2,6-difluorophenyl)-5-oxo-6,7-dihydro-5H-pyrrolo[3,4-d]pyrimidin-4-yl)amino)cyclobutane-1-carboxylic Acid] | < 6.00 | < 6.00
COCCC1(c2ccc(Nc3nc(-c4c(F)cccc4F)nc4c3C(=O)NC4)cc2)CCNC1=O (stereo not shown) [Compound I-116, 2-(2,6-difluorophenyl)-4-((4-(3-(2-methoxyethyl)-2-oxopyrrolidin-3-yl)phenyl)amino)-6,7-dihydro-5H-pyrrolo[3,4-d]pyrimidin-5-one] | > 8.00 | 7.00 to 8.00

The remaining lines, values ahead:

pKi [1] | pKi [2] | SMILES
7.00 to 8.00 | 6.00 to 7.00 | C=C(C(=O)NCC)c1ccc(Nc2nc(-c3c(F)cccc3F)nc3c2C(=O)NC3)cc1 [Compound I-203, 2-(4-((2-(2,6-difluorophenyl)-5-oxo-6,7-dihydro-5H-pyrrolo[3,4-d]pyrimidin-4-yl)amino)phenyl)-N-ethylacrylamide]
> 8.00 | 6.00 to 7.00 | CN1CC[C@](C)(c2ccc(Nc3nc(-c4c(F)cccc4F)nc4c3C(=O)NC4)cc2)C1=O [Compound I-152, (R)-2-(2,6-difluorophenyl)-4-((4-(1,3-dimethyl-2-oxopyrrolidin-3-yl)phenyl)amino)-6,7-dihydro-5H-pyrrolo[3,4-d]pyrimidin-5-one]
> 8.00 | 7.00 to 8.00 | CN1CCNC(C)(c2ccc(Nc3nc(-c4c(F)cccc4F)nc4c3C(=O)NC4)cc2)C1=O (stereo not shown) [Compound I-215, 2-(2,6-difluorophenyl)-4-((4-(2,4-dimethyl-3-oxopiperazin-2-yl)phenyl)amino)-6,7-dihydro-5H-pyrrolo[3,4-d]pyrimidin-5-one]
> 8.00 | 6.00 to 7.00 | O=C(O)c1ccc(Nc2nc(-c3c(F)cccc3F)nc3c2C(=O)NC3)cc1 [Compound I-156, 4-((2-(2,6-difluorophenyl)-5-oxo-6,7-dihydro-5H-pyrrolo[3,4-d]pyrimidin-4-yl)amino)benzoicacid]
7.00 to 8.00 | 6.00 to 7.00 | NC(=O)c1cc(F)c(-c2cc(Nc3ccc(N4CCOCC4)cn3)c3c(n2)CNC3=O)c(F)c1 [Compound I-250, 3,5-difluoro-4-(4-((5-morpholinopyridin-2-yl)amino)-5-oxo-6,7-dihydro-5H-pyrrolo[3,4-b]pyridin-2-yl)benzamide]
> 8.00 | 7.00 to 8.00 | O=C1NCc2nc(-c3c(F)cccc3F)cc(Nc3ccc(C4CCNC4=O)cn3)c21 (stereo not shown) [Compound I-133, 2-(2,6-difluorophenyl)-4-((5-(2-oxopyrrolidin-3-yl)pyridin-2-yl)amino)-6,7-dihydro-5H-pyrrolo[3,4-b]pyridin-5-one]
> 8.00 | 7.00 to 8.00 | C[C@]1(c2ccc(Nc3nc(-c4c(F)cccc4F)nc4c3C(=O)NC4)cc2)NC(=O)NC1=O [Compound I-174, (R)-5-(4-((2-(2,6-difluorophenyl)-5-oxo-6,7-dihydro-5H-pyrrolo[3,4-d]pyrimidin-4-yl)amino)phenyl)-5-methylimidazolidine-2,4-dione]
> 8.00 | 6.00 to 7.00 | O=C1NC(=O)C(c2ccc(Nc3nc(-c4c(F)cccc4F)nc4c3C(=O)NC4)cc2)S1 (stereo not shown) [Compound I-192, 5-(4-((2-(2,6-difluorophenyl)-5-oxo-6,7-dihydro-5H-pyrrolo[3,4-d]pyrimidin-4-yl)amino)phenyl)thiazolidine-2,4-dione]
7.00 to 8.00 | < 6.00 | O=C1NCc2nc(-c3c(F)cccc3F)nc(Nc3ccc(Cl)cc3)c21 [Compound I-180, 4-((4-chlorophenyl)amino)-2-(2,6-difluorophenyl)-6,7-dihydro-5H-pyrrolo[3,4-d]pyrimidin-5-one]
7.00 to 8.00 | 6.00 to 7.00 | O=C1NCc2nc(-c3c(F)cccc3F)nc(Nc3ccc(C(=O)N4CCC4)cc3)c21 [Compound I-158, 4-((4-(azetidine-1-carbonyl)phenyl)amino)-2-(2,6-difluoro-phenyl)-6,7-dihydro-5H-pyrrolo[3,4-d]pyrimidin-5-one]
